In the assay the test system is T1, wild-type (GRR) human STING cGAMP binding domain (residues 155-341).
T1 construct: His-TEV-hSTING (WT); TEV protease cleavage site (N); made in house; host or cells: E. coli BL21 DE3
In words: Differential Scanning Fluorimetry (DSF), stability of STING protein against thermal denaturation. The settings on record: 100 uM compound, 3 uM target protein. On the procedure:
Dye fluorescence is quenched in aqueous environment and increases upon association of the dye with the hydrophobic parts of the unfolding protein. […] The inflection point of the curve represents the “melting” temperature of the protein (Tm) which is calculated numerically using the Boltzmann equation.
Method: The thermal stability of the STING protein was measured using a specific expression construct of the cGAMP binding domain of wild-type (GRR) human STING comprising residues 155-341 and a N-terminal 8x His-tag in assay buffer containing 20 mM Tris, 150 mM NaCl at pH7.5.
The assay uses Hard-Shell®PCR Plates 384-Well CLR/WHT (Catalog #HSP3805, BIO-RAD), Microseal®‘B’ Adhesive Seals for PCR Plates (Catalog #MSB-1001, BIO-RAD) and was run on a CFX384 Real-Time System (Bio-Rad).
A DMSO stock solution of SYPRO orange (SIGMA S5692-500UL) was prepared.
Compound stock solutions (10 mM in DMSO) were diluted 1:2 in DMSO to an intermediate compound concentration of 5 mM and then further diluted 1:40 in assay buffer resulting in a compound concentration of 125 μM and 2.5% DMSO.
Fluorescent dye stock solution (5000×SYPRO Orange) was then mixed with target protein and buffer to a concentration of 15 uM Protein and 25×SYPRO Orange. 2 ul of this protein-dye-mixture was added to 8 ul compound solution. Final volume was 10 uL. 3-6 well positions were used as negative control (protein with 2% DMSO). The plates were prepared for duplicate measurement and centrifuged for 2 min at 1000 g. In the measurement, 160 cycles of 0.5° C. were used (temperature ramp 15 s/cycle, 15° C. to 95° C.).
Final Assay concentrations for compound characterization were as follows:
100 uM compound, 3 uM target protein, 5×SYPRO Orange, 2% DMSO in 10 ul. All dispensing steps were performed using a HamiltonStar pipetting robot (Hamilton).
Dissociation curves were processed in Bio-Rad CFX Manager. Peak type was set to “negative”.
Compound codes for screen were assigned in the plate layout.
Two replicates of TM measurements were averaged, and the standard deviation was calculated. In cases of SD>1.5° C. the measurement was repeated.
The melting point (Tm) obtained for STING protein alone was subtracted from T obtained for protein incubated with ligand to generate ΔTm values.
Protein production and purification: The protein used for the biophysical experiments was a recombinant human STING protein comprising its cytosolic ectodomain. A codon optimized DNA sequence (for expression in Escherichia coli) encoding amino acid residues 155 to 341 (Swiss Prot Q86WV6) of human STING (WT) was synthesized by GeneArt (Regensburg, Germany) and inserted into a pET17b E. coli expression vector. The protein construct encodes an N-terminal 8× His-tag followed by tobacco etch virus protease (TEV) cleavage site and the above STING gene sequence. The resulting protein sequence for the used STING variant is listed below:
For expression of recombinant human STING above construct was transformed into E. coli BL21 DE3 strain and grown in shake flasks in LB-medium at 37° C. Expression was induced by addition of isopropyl β-D-1-thiogalactopyranoside to a final concentration of 1 mM and cultures shaken overnight. Cell pellets were centrifuged and stored at −70° C. until further use. Protein was purified by cell thawing in lysis buffer (20 mM TRIS-HCl, pH 8, 300 mM NaCl, 2 mM mercaptoethanol, 20 mM imidazole, Complete Protease Inhibitor (Roche) and DNase (Roche)), followed by metal affinity purification using Ni-NTA resins and elution buffer consisting of 20 mM TRIS-HCl, pH 8, 300 mM NaCl, 2 mM mercaptoethanol, 300 mM imidazole and size exclusion chromatography in running buffer (20 mM TRIS-HCl, pH 8, 100 mM NaCl, 2 mM DTT). The peak fraction was collected and concentrated to 2.5 mg/mL.
(In general: Differential scanning fluorimetry follows unfolding on heating by fluorescence.)
In the case of `COc1nn(C2CC2)cc1-n1cc2c(-c3nc(-c4ccc(C(=O)N(C)C)cc4OC(F)(F)F)n(C)c3C3CC3)cccc2n1` [Example 15, 4-{5-cyclopropyl-4-[2-(1-cyclopropyl-3-methoxy-1H-pyrazol-4-yl)-2H-indazol-4-yl]-1-methyl-1H-imidazol-2-yl}-N,N-dimethyl-3-(trifluoromethoxy)benzamide], the “DSF ΔTm (K)” value was determined as 25 K.
For `COc1nn(C2CC2)cc1-n1cc2c(-c3nc(-c4ccc(C(N)=O)cc4OCC(F)F)n(C)c3C3CC3)cccc2n1` [Example 6, 4-{5-cyclopropyl-4-[2-(1-cyclopropyl-3-methoxy-1H-pyrazol-4-yl)-2H-indazol-4-yl]-1-methyl-1H-imidazol-2-yl}-3-(2,2-difluoroethoxy)benzamide] the value was 28 K.
Regarding `COc1nn(C2CC2)cc1-n1cc2c(-c3nc(-c4ccc(C(N)=O)cc4OC(F)(F)F)n(C)c3C3CC3)cccc2n1` [Example 16, 4-{5-cyclopropyl-4-[2-(1-cyclopropyl-3-methoxy-1H-pyrazol-4-yl)-2H-indazol-4-yl]-1-methyl-1H-imidazol-2-yl}-3-(trifluoromethoxy)benzamide], the “DSF ΔTm (K)” value turned out to be 32 K.
With `COc1nn(C2CC2)cc1-n1cc2c(-c3nn(-c4ccc(P(C)(C)=O)cc4C)c(C)c3C(C)C)cccc2n1` [Example 9, 2-(1-cyclopropyl-3-methoxy-1H-pyrazol-4-yl)-4-{1-[4-(dimethylphosphoryl)-2-methylphenyl]-5-methyl-4-(propan-2-yl)-1H-pyrazol-3-yl}-2H-indazole] the figure was 22 K; with `CCOc1nn(C)cc1-n1cc2c(-c3nc(-c4ccc(C(N)=O)cc4OC(F)(F)F)n(C)c3C3CC3)cccc2n1` [Example 4, 4-{5-cyclopropyl-4-[2-(3-ethoxy-1-methyl-1H-pyrazol-4-yl)-2H-indazol-4-yl]-1-methyl-1H-imidazol-2-yl}-3-(trifluoromethoxy)benzamide], 30 K.
On to `CC[P@@](C)(=O)c1ccc(-c2nc(-c3cccc4nn(-c5cn(C6CC6)nc5OC)cc34)c(C3CC3)n2C)c(OC(F)(F)F)c1` [Example 13, 4-(5-cyclopropyl-2-{4-[(R)-ethyl(methyl)phosphoryl]-2-(trifluoromethoxy)phenyl}-1-methyl-1H-imidazol-4-yl)-2-(1-cyclopropyl-3-methoxy-1H-pyrazol-4-yl)-2H-indazole], for which the “DSF ΔTm (K)” value stood at 27 K.
`COc1nn(CC(C)(C)O)cc1-n1cc2c(-c3nc(-c4ccc(C(N)=O)cc4OC(F)(F)F)n(C)c3C3CC3)cccc2n1` [Example 11, 4-(5-cyclopropyl-4-{2-[1-(2-hydroxy-2-methylpropyl)-3-methoxy-1H-pyrazol-4-yl]-2H-indazol-4-yl}-1-methyl-1H-imidazol-2-yl)-3-(trifluoromethoxy)benzamide]: the “DSF ΔTm (K)” value stood at 26 K.
With `Cn1nc(-n2cc3c(-c4nc(-c5ccc(C(N)=O)cc5OC(F)(F)F)n(C)c4C4CC4)cccc3n2)cc1C(F)(F)F` [Example 8, 4-(5-cyclopropyl-1-methyl-4-{2-[1-methyl-5-(trifluoromethyl)-1H-pyrazol-3-yl]-2H-indazol-4-yl}-1H-imidazol-2-yl)-3-(trifluoromethoxy)benzamide] the figure was 32 K.
With `Cn1nc(-n2cc3c(-c4nc(-c5ccc(P(C)(C)=O)cc5OC(F)(F)F)n(C)c4C4CC4)cccc3n2)cc1C(F)F` [Example 2, 4-{5-cyclopropyl-2-[4-(dimethylphosphoryl)-2-(trifluoromethoxy)phenyl]-1-methyl-1H-imidazol-4-yl}-2-[5-(difluoromethyl)-1-methyl-1H-pyrazol-3-yl]-2H-indazole] the figure was 30 K; with `COc1nn(C)cc1-n1cc2c(-c3nc(-c4ccc(C(=O)N(C)C)cc4OC(F)(F)F)n(C)c3C3CC3)cccc2n1` [Example 3, 4-{5-cyclopropyl-4-[2-(3-methoxy-1-methyl-1H-pyrazol-4-yl)-2H-indazol-4-yl]-1-methyl-1H-imidazol-2-yl}-N,N-dimethyl-3-(trifluoromethoxy)benzamide], 26 K; with `COCc1cc(C(N)=O)ccc1-c1nc(-c2cccc3nn(-c4cn(C5CC5)nc4OC)cc23)c(C2CC2)n1C` [Example 12, 4-{5-cyclopropyl-4-[2-(1-cyclopropyl-3-methoxy-1H-pyrazol-4-yl)-2H-indazol-4-yl]-1-methyl-1H-imidazol-2-yl}-3-(methoxymethyl)benzamide], 25 K.
For `CCP(=O)(CC)c1ccc(-c2nc(-c3cccc4nn(-c5cc(C(F)(F)F)n(C)n5)cc34)c(C3CC3)n2C)c(OC(F)(F)F)c1` [Example 17, 4-{5-cyclopropyl-2-[4-(diethylphosphoryl)-2-(trifluoromethoxy)phenyl]-1-methyl-1H-imidazol-4-yl}-2-[1-methyl-5-(trifluoromethyl)-1H-pyrazol-3-yl]-2H-indazole] the value was 29 K; for `CC[P@](C)(=O)c1ccc(-c2nc(-c3cccc4nn(-c5cc(C6CC6)n(C)n5)cc34)c(C3CC3)n2C)c(OC(F)(F)F)c1` [Example 19, 2-(5-cyclopropyl-1-methyl-1H-pyrazol-3-yl)-4-(5-cyclopropyl-2-{4-[(S)-ethyl(methyl)phosphoryl]-2-(trifluoromethoxy)phenyl}-1-methyl-1H-imidazol-4-yl)-2H-indazole], 28 K.
`CC[P@](C)(=O)c1ccc(-c2nc(-c3cccc4nn(-c5cn(C6CC6)nc5OC)cc34)c(C3CC3)n2C)c(OC(F)(F)F)c1` [Example 14, 4-(5-cyclopropyl-2-{4-[(S)-ethyl(methyl)phosphoryl]-2-(trifluoromethoxy)phenyl}-1-methyl-1H-imidazol-4-yl)-2-(1-cyclopropyl-3-methoxy-1H-pyrazol-4-yl)-2H-indazole]: the “DSF ΔTm (K)” value is on record as 30 K.
Regarding `CC[P@](C)(=O)c1ccc(-c2nc(-c3cccc4[nH]c(-c5cc(C(F)(F)F)n(C)n5)nc34)c(C3CC3)n2C)c(OC(F)(F)F)c1` [Example 18, 4-(5-cyclopropyl-2-{4-[(S)-ethyl(methyl)phosphoryl]-2-(trifluoromethoxy)phenyl}-1-methyl-1H-imidazol-4-yl)-2-[1-methyl-5-(trifluoromethyl)-1H-pyrazol-3-yl]-1H-1,3-benzodiazole], the “DSF ΔTm (K)” value came to 34 K.

These data come from patent US20250333398A1, “MONOARYL AND HETARYL SUBSTITUTED INDAZOLES AND BENZIMIDAZOLES AS STING ANTAGONISTS AND THE USE THEREOF AS MEDICAMENT” (Boehringer Ingelheim International GmbH, priority 2024, published 2025).
